Data from patent US11330999B2 (MEMORIAL SLOAN KETTERING CANCER CENTER, priority 2017, dated 2022).

Key:
[1] = FWHM of 13C NMR peaks at 14.1T (quadrupolar relaxation at guanidine-carbon); type: physicochemical; settings: for FWHM of the guanidine-carbon peak / FWHM of carbon-1: 14.1T 13C NMR; for FWHM of carbon-1: internal standard
Procedure: (§1) To confirm the reduction of quadrupolar relaxation at the guanidine-carbon by ^15N enrichment, ^13C NMR spectra for unlabeled and [6-^13C, 6-^15N3]-L-Arginine-HCl (21, as described in Example 2) was obtained with a 14.1T ^13C NMR. The full width half max (FWHM) of the guanidine-carbon peak was measured, and the FWHM of the carbon-1 peak was used as an internal standard. For hyperpolarized T1 measurements compound 21 was mixed with 1 equivalent HCl and dissolved to a final concentration of 1.3 M in 2:3 H2O:glycerol with 15 mM of a OX063 radical. The sample was polarized for at least 1 h in a SpinSolve polarizer. […] This was performed twice and the calculated T1 values were averaged.
(§2) The FWHM of the guanidine-carbon peak for natural abundance and compound 21 was measured to be 1.4 Hz and 1.0 Hz, respectively, and the FWHM of carbon-1 was 0.9 Hz for both compounds (FIG. 5B).
Therefore, the present methods may be used to follow Arg-1 activity within a tumor and serve as a surrogate readout of TAM infiltration. As such, this information may be used in therapy selection, monitoring therapeutic efficacy, and determining prognosis.

[2] = Thermal equilibrium T1 at high field (14.1T), inversion recovery; type: physicochemical; settings: for T1 Value (s) D2O: 95:5 D2O:H2O, 100 mM Tris pD 7.4; for T1 Value (s) H2O: 100% H2O, 100 mM Tris pH 7.4
Procedure: (§3) [5-^13C]-glutamine (Cambridge Isotope Laboratories), [^13C]-urea (Sigma Aldrich), [^13C, ^15N2]-urea (Sigma Aldrich), [6-^13C]-arginine (Cambridge Isotope Laboratories), [5-^13C, ^15N]-glutamine (24) (24, as described in Example 7) and [6-^13C, ^15N3]-arginine (21, as described in Example 2) were evaluated to determine thermal equilibrium T1 and T2. An aliquot of each compound was dissolved in 95:5 D2O:H2O containing 100 mM Tris pD 7.4 and 100% H2O containing 100 mM Tris pH 7.4. [^13C]-urea and [^13C, ^15N2]-urea were dissolved to a final concentration of 100 mM.
(§4) ^13C NMR spectra for each compound dissolved in 95:5 D2O:H2O and 100% H2O was obtained with a 14.1T ^13C NMR (Bruker, USA). For inversion recovery experiments, 13 to 15 different delay times between the 180° and 90° pulses, spanning 3T1, were sampled. Each spectrum was an average of 3 to 4 scans, and a 5T1 to 6T1 pre-scan wait time was used to allow re-polarization of carbon nuclear spins between scans. T2 values were measured using a Carr-Purcell-Meiboom-Gill (CPMG) sequence for each compound dissolved in 95:5 D2O:H2O and 100% H2O. A 10 ms (or 5 ms ^13C-urea samples) wait-time between 180° pulses was used, and signal was acquired at total echo times spanning 3T2. For both T1- and T2-relaxation curve fitting, spectra were imported into Mnova (Mestrelabs, USA) and the area under the curve (AUC) of the ^13C resonance of interest was integrated. AUC values were exported to Prism 7 (GraphPad Software, USA), plotted against time on the x-axis, and data points were fit to the Bloch equations for T1 and T2.
(§5) When each compound was dissolved in D2O, the exchangeable protons on the nitrogen atoms rapidly exchange with deuterium in the solvent. As described in Table 1, at high field, each compound having protons exchanged with deuterium extended the T1 of ^13C relaxation times directly bonded to —NH or —NH2 residues, respectively. This effect is further illustrated for [6-^13C]-/[6-^13C, ^15N3]-arginine in FIG. 7.

[3] = Hyperpolarized T1 at 1T after dissolution in buffered H2O or D2O; type: physicochemical; settings: for Hyperpolarized T1 Value (s) D2O: dissolution in 100 mM Tris 1 mM EDTA pD 7.4 D2O; for Hyperpolarized T1 Value (s) H2O: dissolution in 100 mM Tris 1 mM EDTA pH 7.4 H2O
Procedure: Each compound was prepared with a different formulation, as follows: [5-^13C]- and [5-^13C, ^15N]-glutamine was mixed with 1.1 equivalent HCl and dissolved to a final concentration of 1.5 Min H2O:DMSO (65:35). [^13C]— and [^13C, ^15N2]-urea was dissolved to a final concentration of 6M in glycerol. [6-^13C]- and [6-^13C, ^15N3]-arginine was mixed with 1 equivalent HCl and dissolved to a final concentration of 3.2M in H2O. Each of these preparations also contained OX063 radical (General Electric, UK) dissolved to a final concentration of 15 mM. [^13C]—/[^13C, ^15N2]-urea and [6-^13C]-/[6-^13C, ^15N3]-arginine samples were polarized in a 3.35T SpinLab Polarizer (General Electric, UK) for 1.5 hours (0.83K, 93.98 GHz), while: [5-^13C]-/[^13C, ^15N]-glutamine samples were polarized in a 5T SpinLab Polarizer for 2 hours (0.83K, 93.98 GHz). Following polarization, the HP substrate was ejected from the polarizer via rapid dissolution, during which a superheated solution of 100 mM Tris 1 mM EDTA in pH 7.4 H2O or pD 7.4 D2O is run through the sample vial to dissolve the polarized substrate and eject it into a pre-chilled glass vial (−20° C.).

[4] = biological target: T1, human recombinant arginase-1 (Homo sapiens, UniProt P05089); assay: Michaelis-Menten kinetics, colorimetric urea assay; type: biochemical; settings: 37° C., compound as substrate
T1 sequence (P05089 1-322): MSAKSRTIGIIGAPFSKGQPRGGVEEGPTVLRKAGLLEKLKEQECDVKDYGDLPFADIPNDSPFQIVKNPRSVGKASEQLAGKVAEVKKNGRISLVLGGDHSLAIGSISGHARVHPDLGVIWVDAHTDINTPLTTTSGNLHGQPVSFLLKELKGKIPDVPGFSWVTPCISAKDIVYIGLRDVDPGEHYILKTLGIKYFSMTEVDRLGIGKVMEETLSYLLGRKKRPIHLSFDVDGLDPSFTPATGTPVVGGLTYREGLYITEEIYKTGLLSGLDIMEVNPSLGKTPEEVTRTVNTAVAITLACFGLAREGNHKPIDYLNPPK

arginase = biological target: T2, arginase (Mus musculus, UniProt Q61176); assay: In vivo conversion of injected labeled arginine to urea in mouse liver (13C-NMR of extract); settings: Balb/c mouse, tail vein 250 μL 20 mM, 1 min post-injection, extrapolated to a 1 g liver
T2 construct: from tissue; host or cells: liver of a living Balb/c mouse (in vivo)
T2 sequence (Q61176 1-323): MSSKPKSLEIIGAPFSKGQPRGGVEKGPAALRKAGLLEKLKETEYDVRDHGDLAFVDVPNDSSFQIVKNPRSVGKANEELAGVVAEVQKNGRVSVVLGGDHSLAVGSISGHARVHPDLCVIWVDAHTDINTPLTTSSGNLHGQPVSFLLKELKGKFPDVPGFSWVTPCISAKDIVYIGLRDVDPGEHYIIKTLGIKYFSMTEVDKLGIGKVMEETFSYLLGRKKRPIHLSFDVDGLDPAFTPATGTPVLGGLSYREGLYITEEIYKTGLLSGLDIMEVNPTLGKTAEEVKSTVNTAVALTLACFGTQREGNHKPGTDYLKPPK
Procedure: In vivo assay: A female, Balb/c mouse was equipped with a tail vein cannula and placed under anesthesia (1.5% isoflurane, 1 L/min for 30 mins), after which it was injected with 250 μL 20 mM [6-^13C, ^15N3]-arginine in 100 mM Tris, 1 mM EDTA pH 7.4 (in addition to another 100 μL of 10 U/mL heparin in saline which was in the dead space of the cannula) over the course of 10 seconds. 1 minute post-injection, the mouse was sacrificed via cervical dislocation, and the liver was collected and frozen in liquid nitrogen. 118 mg of the liver was extracted in 4% perchloric acid, the metabolite extract mixture was dried and subsequently re-suspended in D2O containing the glycine standard and 0.5 mM Gd-DOTA. A ^13C-NMR spectrum was acquired on a 600 MHz spectrometer (FIG. 10).

[5] = Thermal equilibrium T2 at high field (14.1T), CPMG; type: physicochemical; settings: for T2 Value (s) D2O: 95:5 D2O:H2O, 100 mM Tris pD 7.4; for T2 Value (s) H2O: 100% H2O, 100 mM Tris pH 7.4
Procedure: as §3, §4, §5

[6] = Hyperpolarized T1 of arginine guanidine-carbon at 1T; type: physicochemical; settings: 30° flip angle, 3 s repetition time, average of two
Procedure: as §1, §2

Compound	FWHM of the guanidine-carbon peak [1] [Hz]	FWHM of carbon-1 [1] [Hz]	decrease of FWHMguanidine:FWHMcarbon-1 ratio ([1]; labeled versus natural abundance arginine) [%]	T1 Value (s) D2O [2] [s]	T1 Value (s) H2O [2] [s]	Hyperpolarized T1 Value (s) D2O [3] [s]	Hyperpolarized T1 Value (s) H2O [3] [s]	Km [4] [µM]	Vmax [4] [s⁻¹]	[13C, 15N2]-urea produced, share of the total injected arginine dose (arginase)	T2 Value (s) D2O [5] [s]	T2 Value (s) H2O [5] [s]	T1 of the guanidine-carbon [6] [s]
[6-^13C, 6-^15N3]-L-Arginine-HCl [Compound 21]	1.0	0.9	29	9.71 ± 0.26	6.83 ± 0.19	31.2 ± 6.8	13.3 ± 0.8	2040 ± 270	48.2 ± 2.0	approx. 3%	2.68 ± 0.03	0.82 ± 0.02	20.4 ± 0.4
N=C(N)NCCC[C@H](N)C(=O)O [natural abundance arginine, arginine]	1.4	0.9							54.8 ± 2.2				
N[C@@H](CC[13C](N)=O)C(=O)O [Glutamine ^13C, [5-^13C]-glutamine]				12.34 ± 0.21	10.66 ± 0.34	34.1 ± 2.5	21.8 ± 1.8				0.455 ± 0.004	0.354 ± 0.003	
N[13C](N)=O [Urea ^13C, [^13C]-urea]				57.24 ± 3.95	31.01 ± 1.18	123.8 ± 19.6	51.6 ± 5.44				0.100 ± 0.002	0.089 ± 0.001	
